In patent US20060088552A1, “Method for inhibiting cell death, cell death inhibitor, and remedy for disease caused by cell death containing the cell death inhibitor” (priority 2002, published 2006):

Tests used:
C6 glial cells [1] = test: Whole-cell patch-clamp recording of VacA-induced currents; assay type: cell-based, rat; conditions: extracellular application, 100 μM, pH 7.4
Description: Using wide-tipped electrodes (to 2 MΩ), observation according to whole-cell recording (patch-clamp methods) was performed at room temperature (23-25° C.) as reported previously (Kubo M., Okada Y., “Volume-regulatory Cl^− channel currents in cultured human epithelial cells”, J. Physiol. 456, 351-371, 1992). Series resistance (<5 MΩ) was compensated (to 60% to 70%) to minimize voltage errors. Time course of current change was monitored by applying (every 15 s) alternating step pulses ([…]) from a holding potential of 0 to ±40 mV. To monitor voltage dependence of a whole-cell volume-sensitive current, step pulses (2-s duration) were applied from a prepotential of −60 mV (2-s duration) to test potentials of −60 to 100 mV in 20 mV increments after attaining steady-state activation of swelling-induced current. […] Instantaneous currents were recorded 2.5 ms after application of step pulses. […] Currents were recorded using an EPC-9 amplifier (HEKA, Lambrechet, Germany). […]
Cell swelling was induced by hypotonic (270 mosmol/kg H2O) solution in which mannitol was reduced to 40 mM. […] Permeability properties of VacA-induced channels were also assessed by using the following solutions: […]
Relative anion permeability was also assessed by replacing 115 mM extracellular Cl^− with aspartate. […]

C6 glial cells [2] = assay type: cell-based, rat
Description: Cell volume was assessed according to a Coulter principle using a flow cytometer (EPICS Elite ESP, Coulter Co., Miami, Fla.). Cell viability was also assessed under a flow cytometry by a propidium iodide exclusion test. The cell suspension of 10 ml was incubated at 37° C. fro 1 min after adding 2 μl of PBS containing 10 mg/ml propidium iodide. Mean cell volume was measured at a given time by introducing 350 μl of the cell suspension containing 2×10^4 cells into the flow cytometer. A baseline cell volume was obtained as mean of values measured before and after a 20-min incubation in control solution (pH 7.4). Thereafter, effects of acidosis (pH 6.2), lactacidosis (pH 6.2), or lactate (pH 7.4) were assessed with addition of (i) HCl, (ii) lactate, or (iii) lactate and Tris. After the cells were preincubated with control (pH 7.4), acidic (pH 6.2), or lactacidosis (pH 6.2 with lactate) solution (all isotonic), effects of a hypotonic challenge were also assessed by diluting the isotonic medium with a 30% volume of deionized distilled water.
Composition of control solution employed for cell volume measurements was as follows: 125 mM NaCl, 2.5 mM KCl, 2 mM CaCl2, 1.0 mM MgCl2, 10 mM glucose, 1.25 mM NaH2PO4, and 25 mM NaHCO3 (pH 7.4, in 95% air/5% CO2). […] Molar osmolality measured by a freezing-point depression osmometer (Vogel, Giessen, Germany) was, 300, 306, and 312 mosmol/kg-H2O. […]

Molecule	effect on VacA-mediated current (C6 glial cells [1])	volume regulation after lactacidosis-induced transient swelling in VacA-treated cells (C6 glial cells [2]; 100 μM NPPB, VacA-treated cells)	lactacidosis-induced persistent cell swelling (C6 glial cells [2]; pretreatment with gramicidin 0.5 μM)
O=C(O)c1cc([N+](=O)[O-])ccc1NCCCc1ccccc1 [NPPB]	strongly inhibited	abolished	
gramicidin			not prevented
